The text below walks through data of patent US8969565B2, “Imidazo[1,2-b]pyridazine-based compounds, compositions comprising them, and methods of their use” (Lexicon Pharmaceuticals, Inc., priority 2012, dated 2015).

Counter-ions that a name gives are not always drawn.

Data set [1] deals with T1, AAK1 (Homo sapiens, UniProt Q2M2I8).
T1 construct: HA; expressed in transfected cells; host or cells: HEK293F
Nature of the data set: HEK281 cell-based assay (phospho-mu2 Western blot in transfected HEK293F cells). Conditions: 3 hours incubation, read-out: CBA IC50. The method, boiled down:
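After 3 hours at 37° C. with compound (five 3-fold-spaced concentrations, DMEM+0.5% FBS), transiently transfected HEK293F cells expressing full-length human AAK1 and Flag-tagged mu2 were lysed. mu2 phosphorylation was read by anti-phospho-mu2 immunoblot, normalized against total mu2 by anti-Flag blot.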

In data set [2] the target is T1, AAK1. Nature of the data set: P81 filter plate assay. Conditions: full-length human AAK1, Mu2 substrate. Format: biochemical.

Usually melting point stands for the temperature, or range, at which the solid turns liquid. The IC50 is the concentration that inhibits the measured activity by half.

T1 sequence (Q2M2I8 1-863 isoform Q2M2I8-2): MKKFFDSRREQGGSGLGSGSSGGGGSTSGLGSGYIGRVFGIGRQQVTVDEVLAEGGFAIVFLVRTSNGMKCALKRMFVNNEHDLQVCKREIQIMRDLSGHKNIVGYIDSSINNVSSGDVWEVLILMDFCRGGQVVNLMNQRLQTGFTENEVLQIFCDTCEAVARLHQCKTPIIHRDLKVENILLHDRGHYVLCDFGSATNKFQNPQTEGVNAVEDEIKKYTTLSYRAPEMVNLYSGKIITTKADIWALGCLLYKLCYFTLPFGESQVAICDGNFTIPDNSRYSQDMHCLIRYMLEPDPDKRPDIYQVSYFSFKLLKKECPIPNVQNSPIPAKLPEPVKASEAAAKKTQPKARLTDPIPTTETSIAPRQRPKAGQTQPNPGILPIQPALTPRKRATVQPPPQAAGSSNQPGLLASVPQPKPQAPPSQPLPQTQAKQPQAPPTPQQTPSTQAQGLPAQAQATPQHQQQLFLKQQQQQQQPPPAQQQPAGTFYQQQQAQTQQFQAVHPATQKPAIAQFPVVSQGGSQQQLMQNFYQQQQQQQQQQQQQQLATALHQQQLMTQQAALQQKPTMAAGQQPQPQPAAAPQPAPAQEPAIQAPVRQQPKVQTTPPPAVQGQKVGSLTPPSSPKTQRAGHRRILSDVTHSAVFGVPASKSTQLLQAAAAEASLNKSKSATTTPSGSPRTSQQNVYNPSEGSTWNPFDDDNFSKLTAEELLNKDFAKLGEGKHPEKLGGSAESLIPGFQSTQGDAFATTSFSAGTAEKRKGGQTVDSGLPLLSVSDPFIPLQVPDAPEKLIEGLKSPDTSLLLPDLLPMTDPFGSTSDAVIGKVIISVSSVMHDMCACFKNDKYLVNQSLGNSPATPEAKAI

On to `CN(CCNc1ccc2ncc(-c3ccc(C(N)=O)cc3)n2n1)C(=O)NC(C)(C)C`, for which the melting point is 154 to 155 °C.

`CC(C)OC(=O)N1CCN(c2ccc3ncc(-c4ccccc4)n3n2)CC1` (as salt: hydrochloride) [4-(3-Phenyl-imidazo[1,2-b]pyridazin-6-yl)-piperazine-1-carboxylic acid isopropyl ester]: the melting point is 232 to 233 °C (dec.). The same measure, in the same setting: under `COc1cnccc1-c1cnc2ccc(N3CCN(C(=O)OC(C)C)CC3)nn12` (as salt: hydrochloride) [Example 5.6.103, 4-[3-(3-Methoxy-pyridin-4-yl)-imidazo[1,2-b]pyridazin-6-yl]-piperazine-1-carboxylic acid isopropyl ester] stands 217 to 218 °C (dec.).

`FC(F)(F)CCCNc1ccc2ncc(-c3cccc4c3OCC4)n2n1` (as salt: hydrochloride) [Example 5.6.106, [3-(2,3-Dihydro-benzofuran-7-yl)-imidazo[1,2-b]pyridazin-6-yl]-(4,4,4-trifluoro-butyl)-amine] showed a melting point of 299 to 300 °C. Same read-out and setting: in the case of `CC(C)OC(=O)N1CCN(c2ccc3ncc(-c4ccncc4)n3n2)CC1` (as salt: hydrochloride) [Example 5.6.108, 4-(3-Pyridin-4-yl-imidazo[1,2-b]pyridazin-6-yl)-piperazine-1-carboxylic acid isopropyl ester] it was 195 to 196 °C (dec.). With `CN(C(=O)OC(C)(C)C)[C@H]1CCN(c2ccc3ncc(Br)n3n2)C1` [[(S)-1-(3-Bromo-imidazo[1,2-b]pyridazin-6-yl)-pyrrolidin-3-yl]-methyl-carbamic acid tert-butyl ester], the figures for the IC50 on AAK1 [1] and on AAK1 [2] were no more than 1 µM and no more than 0.01 µM, respectively.

As for `CCOC(=O)N1CCN(c2ccc3ncc(-c4ccccc4)n3n2)CC1` [ethyl 4-(3-phenylimidazo[1,2-b]pyridazin-6-yl)piperazine-1-carboxylate], the IC50 on AAK1 [1] is no more than 0.1 µM; at AAK1 [2] it was no more than 0.01 µM.

`CC(C)OC(=O)N1CCN(c2ccc3ncc(-c4cccc5c4OC(F)(F)O5)n3n2)CC1` [isopropyl 4-(3-(2,2-difluorobenzo[d][1,3]dioxol-4-yl)imidazo[1,2-b]pyridazin-6-yl)piperazine-1-carboxylate]: the IC50 on AAK1 [1] is no more than 1 µM; on AAK1 [2] it was no more than 0.01 µM.

As for `COc1cccc(-c2cnc3ccc(N4CCN(C(=O)OC(C)C)CC4)nn23)c1OC` [isopropyl 4-(3-(2,3-dimethoxyphenyl)imidazo[1,2-b]pyridazin-6-yl)piperazine-1-carboxylate], the IC50 on AAK1 [1] was no more than 0.1 µM; against AAK1 [2], no more than 0.01 µM.

As to `COc1ccc(OC)c(-c2cnc3ccc(N4CCN(C(=O)OC(C)C)CC4)nn23)c1` [isopropyl 4-(3-(2,5-dimethoxyphenyl)imidazo[1,2-b]pyridazin-6-yl)piperazine-1-carboxylate], the figures for the IC50 at AAK1 [1] and on AAK1 [2] were no more than 0.1 µM and no more than 0.01 µM, respectively.

In the case of `CC(C)OC(=O)N1CCN(c2ccc3ncc(-c4ccccc4OC(F)F)n3n2)CC1` [isopropyl 4-(3-(2-(difluoromethoxy)phenyl)imidazo[1,2-b]pyridazin-6-yl)piperazine-1-carboxylate], the IC50 on AAK1 [1] was no more than 0.1 µM; on AAK1 [2], no more than 0.01 µM. Taken in the same sequence, the figures for `CC(C)OC(=O)N1CCN(c2ccc3ncc(-c4cccnc4OC(F)F)n3n2)CC1` [isopropyl 4-(3-(2-(difluoromethoxy)pyridin-3-yl)imidazo[1,2-b]pyridazin-6-yl)piperazine-1-carboxylate] were no more than 0.1 µM and no more than 0.01 µM. In the case of `CCOc1ccccc1-c1cnc2ccc(N3CCN(C(=O)OC(C)C)CC3)nn12` [isopropyl 4-(3-(2-ethoxyphenyl)imidazo[1,2-b]pyridazin-6-yl)piperazine-1-carboxylate], the IC50 at AAK1 [1] was no more than 0.1 µM; on AAK1 [2], no more than 0.01 µM. `CCOc1ncccc1-c1cnc2ccc(N3CCN(C(=O)OC(C)C)CC3)nn12` [isopropyl 4-(3-(2-ethoxypyridin-3-yl)imidazo[1,2-b]pyridazin-6-yl)piperazine-1-carboxylate]: the IC50 at AAK1 [1] and against AAK1 [2] was no more than 0.01 µM each time. In the case of `COc1cccc(-c2cnc3ccc(N4CCN(C(=O)OC(C)C)CC4)nn23)c1F` [isopropyl 4-(3-(2-fluoro-3-methoxyphenyl)imidazo[1,2-b]pyridazin-6-yl)piperazine-1-carboxylate], the IC50 on AAK1 [1] was no more than 0.1 µM; on AAK1 [2], no more than 0.01 µM.

In the case of `CC(C)OC(=O)N1CCN(c2ccc3ncc(-c4ccccc4F)n3n2)CC1` [isopropyl 4-(3-(2-fluorophenyl)imidazo[1,2-b]pyridazin-6-yl)piperazine-1-carboxylate], the values for the IC50 on AAK1 [1] and at AAK1 [2] were no more than 0.1 µM and no more than 0.01 µM, respectively.

In the case of `COc1nc(C)ccc1-c1cnc2ccc(N3CCN(C(=O)OC(C)C)CC3)nn12` [isopropyl 4-(3-(2-methoxy-6-methylpyridin-3-yl)imidazo[1,2-b]pyridazin-6-yl)piperazine-1-carboxylate], the IC50 on AAK1 [1] and against AAK1 [2] was no more than 0.01 µM throughout. As for `COc1ccccc1-c1cnc2ccc(N3CCN(C(=O)OC(C)C)CC3)nn12` [isopropyl 4-(3-(2-methoxyphenyl)imidazo[1,2-b]pyridazin-6-yl)piperazine-1-carboxylate], the IC50 at AAK1 [1] and against AAK1 [2] was no more than 0.01 µM in each case. For the compound `COc1ncccc1-c1cnc2ccc(N3CCN(C(=O)OC(C)C)CC3)nn12` [isopropyl 4-(3-(2-methoxypyridin-3-yl)imidazo[1,2-b]pyridazin-6-yl)piperazine-1-carboxylate], the IC50 at AAK1 [1] and at AAK1 [2] was no more than 0.01 µM throughout.

Take `COc1cc(-c2cnc3ccc(N4CCN(C(=O)OC(C)C)CC4)nn23)ccn1` [isopropyl 4-(3-(2-methoxypyridin-4-yl)imidazo[1,2-b]pyridazin-6-yl)piperazine-1-carboxylate]: the IC50 at AAK1 [1] is no more than 0.1 µM; at AAK1 [2], no more than 0.01 µM. Taken in the same sequence, the figures for `CC(C)OC(=O)N1CCN(c2ccc3ncc(-c4ccc[nH]c4=O)n3n2)CC1` [isopropyl 4-(3-(2-oxo-1,2-dihydropyridin-3-yl)imidazo[1,2-b]pyridazin-6-yl)piperazine-1-carboxylate] were no more than 0.1 µM and no more than 0.01 µM. With `CC(C)OC(=O)N1CCN(c2ccc3ncc(-c4cccc(Cl)c4)n3n2)CC1` [isopropyl 4-(3-(3-chlorophenyl)imidazo[1,2-b]pyridazin-6-yl)piperazine-1-carboxylate], the results for the IC50 on AAK1 [1] and against AAK1 [2] were no more than 1 µM and no more than 0.01 µM, respectively. The like results for `COc1cccc(-c2cnc3ccc(N4CCN(C(=O)OC(C)C)CC4)nn23)c1` [isopropyl 4-(3-(3-methoxyphenyl)imidazo[1,2-b]pyridazin-6-yl)piperazine-1-carboxylate] were, in that order, no more than 0.1 µM and no more than 0.01 µM. Taken in the same sequence, the figures for `CC(C)OC(=O)N1CCN(c2ccc3ncc(-c4ccc(CN)cc4)n3n2)CC1` [isopropyl 4-(3-(4-(aminomethyl)phenyl)imidazo[1,2-b]pyridazin-6-yl)piperazine-1-carboxylate] were no more than 0.01 µM and no more than 0.01 µM.

Take `COc1cc(C)c(F)cc1-c1cnc2ccc(N3CCN(C(=O)OC(C)C)CC3)nn12` [isopropyl 4-(3-(5-fluoro-2-methoxy-4-methylphenyl)imidazo[1,2-b]pyridazin-6-yl)piperazine-1-carboxylate]: the IC50 on AAK1 [1] and against AAK1 [2] was no more than 0.01 µM throughout.

Turning to `COc1ccc(F)cc1-c1cnc2ccc(N3CCN(C(=O)OC(C)C)CC3)nn12` [isopropyl 4-(3-(5-fluoro-2-methoxyphenyl)imidazo[1,2-b]pyridazin-6-yl)piperazine-1-carboxylate], the IC50 at AAK1 [1] and on AAK1 [2] was no more than 0.01 µM in each case.

Regarding `COc1ncc(F)cc1-c1cnc2ccc(N3CCN(C(=O)OC(C)C)CC3)nn12` [isopropyl 4-(3-(5-fluoro-2-methoxypyridin-3-yl)imidazo[1,2-b]pyridazin-6-yl)piperazine-1-carboxylate], the IC50 on AAK1 [1] and on AAK1 [2] was no more than 0.01 µM throughout. Consider `O=C(N1CCCCC1)N1CCN(c2ccc3ncc(-c4ccccn4)n3n2)CC1` [piperidin-1-yl(4-(3-(pyridin-2-yl)imidazo[1,2-b]pyridazin-6-yl)piperazin-1-yl)methanone], for which the IC50 on AAK1 [1] was no more than 0.1 µM; at AAK1 [2], no more than 0.01 µM.

On to `COc1ccccc1-c1cnc2ccc(N3CCC(N(C)C(=O)OC(C)(C)C)C3)nn12` (stereo not shown) [tert-butyl (1-(3-(2-methoxyphenyl)imidazo[1,2-b]pyridazin-6-yl)pyrrolidin-3-yl)(methyl)carbamate], for which the IC50 is no more than 1 µM on AAK1 [1] and no more than 0.01 µM on AAK1 [2]. The like results for `COc1ncccc1-c1cnc2ccc(N3CCC(N(C)C(=O)OC(C)(C)C)C3)nn12` (stereo not shown) [tert-butyl (1-(3-(2-methoxypyridin-3-yl)imidazo[1,2-b]pyridazin-6-yl)pyrrolidin-3-yl)(methyl)carbamate] were, in that order, no more than 0.1 µM and no more than 0.01 µM. The like results for `CN(C(=O)OC(C)(C)C)C1CCN(c2ccc3ncc(-c4ccccc4)n3n2)C1` (stereo not shown) [tert-butyl methyl(1-(3-phenylimidazo[1,2-b]pyridazin-6-yl)pyrrolidin-3-yl)carbamate] were, in that order, no more than 0.1 µM and no more than 0.1 µM. Taken in the same sequence, the figures for `COc1ncccc1-c1cnc2ccc(N3CC[C@H](N(C)C(=O)OC(C)(C)C)C3)nn12` [{(S)-1-[3-(2-Methoxy-pyridin-3-yl)-imidazo[1,2-b]pyridazin-6-yl]-pyrolidin-3-yl}-methyl-carbamic acid tert-butyl ester] were no more than 0.1 µM and no more than 0.01 µM. Take `COc1ncccc1-c1cnc2ccc(N3CC[C@H](N(C)C(=O)OC(C)C)C3)nn12` [{(S)-1-[3-(2-Methoxy-pyridin-3-yl)-imidazo[1,2-b]pyridazin-6-yl]-pyrrolidin-3-yl}-methyl-carbamic acid isopropyl ester]: the IC50 on AAK1 [1] and on AAK1 [2] was no more than 0.01 µM each time.
